From patent US8357673B2, “4-arylazo-3,5-diamino-pyrazole compounds and use thereof” (Univerzita Palackeho V Olomouci, priority 2004, dated 2013)
Where two headings read alike, the source gives them in different places.

How the values were obtained:
[1] = In vitro cytotoxicity, Calcein AM, 72 h; type: cell-based, human; settings: human, at 100 μM
Protocol: Tested drugs were added to the cell cultures in six different concentration and kept at 37° C. and 5% CO2 for three days.
The cells, cultured in DMEM (supplemented with 10% fetal calf serum, 4 mM glutamine, 100 IU/ml penicillin, 100 μg/ml streptomycin) in a humidified CO2 incubator at 37° C., were redistributed into 96-well microtitre plates (10.000 cells per well). After 12 h preincubation, tested compounds in six-fold dilutions were added. Treatment of cells with the tested compounds (in the 1-100 μM range) lasted for 72 h.

CK2 = CK2 (Homo sapiens, UniProt P68400); assay: Kinase selectivity panel; type: biochemical; settings: in the presence of 10 μM compound
CDK1/cyclin B = biological target: T1, CDK1/cyclin B (Homo sapiens, UniProt P06493); assay: CDK1/cyclin B kinase inhibition assay (histone H1, [γ-33P]ATP); type: biochemical
T1 construct: made in house; host or cells: Sf9 insect cells (baculovirus co-infection)
Protocol: (§1) CDK1/cyclin B and CDK2/cyclin E kinases were produced in Sf9 insect cells coinfected with appropriate baculoviral constructs. The cells were harvested 70 h post infection, incubated in lysis buffer (50 mM Tris pH 7.4, 150 mM NaCl, 5 mM EDTA, 20 mM NaF, 1% Tween 20, 1 mM DTT, 0.1 mM PMSF, 0.5 μg/ml leupeptine, 1 μg/ml aprotonine) for 30 min on ice and the soluble fraction was recovered by centrifugation at 20.000 g for 10 min. The enzymes were purified on NiNTA column (Qiagen), stored at 4° C. and used within a week. To carry out the enzyme inhibition assays under linear conditions, the final point test system for kinase activity measurement was used. Kinase was added to reaction mixture in such a way as to obtain linear activity with respect to the concentration of enzyme and with respect to time. For determination of kinase inhibition the reaction mixture contained 1 mg/ml histone H1 (type III-S, Sigma) in the presence of 15 μM ATP, 0.05 μCi [γ-^33P]ATP and the tested compound in a final volume of 10 μl; all in reaction buffer (50 mM HEPES, 10 mM MgCl2, 5 mM EGTA, 10 mM 2-glycerolphosphate, 1 mM NaF, 1 mM DTT, pH 7.4). After 20 min incubation, the reactions were stopped by the addition of 5 μl of a 3% H3PO4, aliquots were spotted on P-81 phosphocellulose (Whatman, USA) that was subsequently washed 3× with 5% H3PO4 and finally air dried. The measurements of kinase inhibition employed digital image analyzer BAS-1800 (Fujifilm, Japan). Kinase activity was usually expressed as a percentage of maximum activity. […] For the purpose of kinetic analysis, the activity was expressed as arbitrary units (AU) of digital image analyzer signal.

p70S6K = p70S6K (Homo sapiens, UniProt P23443); assay: Kinase selectivity panel; type: biochemical
PKA = PKA (Homo sapiens, UniProt P17612); settings: in the presence of 10 μM compound
PKBα = PKBα (Homo sapiens, UniProt P31749); assay: Kinase selectivity panel; type: biochemical; settings: in the presence of 10 μM compound
GSK3β = GSK3β (Homo sapiens, UniProt P49841); assay: Kinase selectivity panel; type: biochemical; settings: in the presence of 10 μM compound
MAPK1 = assay: Kinase selectivity panel; type: biochemical, human; settings: in the presence of 10 μM compound
K562 cell line = assay: Cell cycle analysis by flow cytometry; type: cell-based, human
Protocol: Taxol (1 μM) treated and control cells were harvested and analyzed simultaneously.
The antiproliferative activity of 4-arylazo-3,5-diaminopyrazoles was subsequently verified by flow cytometry with subconfluent and asynchronously growing K562 cell line. […] The cell cycle block in G2/M was not dominant.
After a longer incubation period (48-72 h) the cells started to die, with the some morphological features typical for apoptosis. […] The induction of apoptosis was therefore verified by the detection of a poly(ADP-ribose)polymerase (PARP) cleavage fragment. PARP is specifically cleaved as a result of activation of upstream proapoptotic caspases into 89 kDa and 27 kDa peptides.

SAPK2α = SAPK2α (Homo sapiens, UniProt Q16539); assay: Kinase selectivity panel; type: biochemical; settings: in the presence of 10 μM compound
CDK2/cyclin E = biological target: T2, CDK2/cyclin E (Homo sapiens, UniProt P24941); assay: CDK2/cyclin E kinase inhibition assay (histone H1, [γ-33P]ATP); type: biochemical
T2 construct: made in house; host or cells: Sf9 insect cells (baculovirus co-infection)
Protocol: as §1

[2] = system: poly(ADP-ribose)polymerase (PARP) cleavage fragment; assay: PARP cleavage by western blot (induction of apoptosis); type: cell-based, human; settings: K562 cells; FIG. 4 legend: MCF7 cells, 72 h
Protocol: For direct immunoblotting, total cellular protein lysates were prepared by harvesting treated cells in Laemmli sample buffer. […] The probing with anti-PARP monoclonal antibody (clone C-2-10) diluted 1:1000 lasted for 2 h at 22° C. After washing three times in PBS-T, the membrane was incubated with a 1:1000 dilution of peroxidase conjugated rabbit antimouse immunoglobulin. After another three washes in PBS-T, peroxidase activity was detected by ECL chemiluminiscence reagents (Amersham) according to the manufacturer's instructions. After a longer incubation period (48-72 h) the cells started to die, with the some morphological features typical for apoptosis. […] The induction of apoptosis was therefore verified by the detection of a poly(ADP-ribose)polymerase (PARP) cleavage fragment. PARP is specifically cleaved as a result of activation of upstream proapoptotic caspases into 89 kDa and 27 kDa peptides.

c-Abl = c-Abl (Homo sapiens, UniProt P00519); assay: Kinase selectivity panel; type: biochemical; settings: in the presence of 10 μM compound
CHK1 = CHK1 (Homo sapiens, UniProt O14757); assay: Kinase selectivity panel; type: biochemical; settings: in the presence of 10 μM compound
CDK7/cyclin H = CDK7/cyclin H (Homo sapiens, UniProt P50613); assay: Kinase selectivity panel; type: biochemical; settings: in the presence of 10 μM compound
[3] = averaged from triplicates, 15 μM ATP
[4] = in the presence of 10 μM compound

T1 sequence (P06493 whole entry): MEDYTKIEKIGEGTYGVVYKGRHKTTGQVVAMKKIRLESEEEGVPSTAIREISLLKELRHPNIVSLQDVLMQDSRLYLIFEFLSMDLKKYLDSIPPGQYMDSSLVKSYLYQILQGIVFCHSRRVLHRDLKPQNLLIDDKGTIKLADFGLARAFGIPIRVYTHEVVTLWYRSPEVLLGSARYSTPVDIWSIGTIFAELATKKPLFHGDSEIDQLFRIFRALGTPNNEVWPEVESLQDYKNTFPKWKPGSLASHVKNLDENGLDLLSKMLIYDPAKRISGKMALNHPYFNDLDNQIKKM
T1 sequence (P14635 whole entry partner): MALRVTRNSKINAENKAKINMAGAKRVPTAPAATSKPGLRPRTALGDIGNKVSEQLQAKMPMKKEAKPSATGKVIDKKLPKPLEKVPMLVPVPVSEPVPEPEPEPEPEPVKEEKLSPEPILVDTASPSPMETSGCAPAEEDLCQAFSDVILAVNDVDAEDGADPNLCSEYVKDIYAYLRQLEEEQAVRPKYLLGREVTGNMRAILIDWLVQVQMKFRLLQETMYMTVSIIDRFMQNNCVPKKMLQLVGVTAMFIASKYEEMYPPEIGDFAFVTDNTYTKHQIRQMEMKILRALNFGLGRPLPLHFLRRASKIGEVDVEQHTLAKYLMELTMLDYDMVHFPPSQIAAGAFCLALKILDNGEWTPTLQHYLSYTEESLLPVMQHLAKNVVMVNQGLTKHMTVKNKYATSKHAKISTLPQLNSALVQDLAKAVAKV
Chain of p70S6K (P23443 whole entry): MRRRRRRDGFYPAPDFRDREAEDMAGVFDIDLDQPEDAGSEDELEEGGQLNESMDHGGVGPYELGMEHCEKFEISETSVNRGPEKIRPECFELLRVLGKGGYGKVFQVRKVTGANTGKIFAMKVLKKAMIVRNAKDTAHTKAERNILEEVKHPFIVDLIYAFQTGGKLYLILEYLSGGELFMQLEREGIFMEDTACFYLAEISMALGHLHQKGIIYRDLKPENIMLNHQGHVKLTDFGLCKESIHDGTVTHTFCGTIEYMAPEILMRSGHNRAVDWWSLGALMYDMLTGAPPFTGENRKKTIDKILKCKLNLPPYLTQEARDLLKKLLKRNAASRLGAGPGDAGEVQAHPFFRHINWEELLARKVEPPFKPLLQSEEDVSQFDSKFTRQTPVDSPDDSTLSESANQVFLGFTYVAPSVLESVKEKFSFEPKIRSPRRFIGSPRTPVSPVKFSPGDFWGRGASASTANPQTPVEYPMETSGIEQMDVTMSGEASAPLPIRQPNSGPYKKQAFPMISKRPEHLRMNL
Chain of CDK7/cyclin H (P50613 whole entry): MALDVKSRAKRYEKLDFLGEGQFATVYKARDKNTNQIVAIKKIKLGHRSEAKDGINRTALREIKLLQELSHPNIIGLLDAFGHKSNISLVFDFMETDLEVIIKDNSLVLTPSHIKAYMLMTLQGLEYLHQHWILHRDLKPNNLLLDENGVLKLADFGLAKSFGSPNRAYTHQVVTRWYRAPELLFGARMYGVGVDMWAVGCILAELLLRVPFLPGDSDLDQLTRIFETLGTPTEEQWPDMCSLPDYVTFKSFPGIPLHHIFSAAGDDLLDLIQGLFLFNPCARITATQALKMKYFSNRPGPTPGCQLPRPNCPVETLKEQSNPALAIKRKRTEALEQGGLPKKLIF
Chain of CDK7/cyclin H (P51946 whole entry partner): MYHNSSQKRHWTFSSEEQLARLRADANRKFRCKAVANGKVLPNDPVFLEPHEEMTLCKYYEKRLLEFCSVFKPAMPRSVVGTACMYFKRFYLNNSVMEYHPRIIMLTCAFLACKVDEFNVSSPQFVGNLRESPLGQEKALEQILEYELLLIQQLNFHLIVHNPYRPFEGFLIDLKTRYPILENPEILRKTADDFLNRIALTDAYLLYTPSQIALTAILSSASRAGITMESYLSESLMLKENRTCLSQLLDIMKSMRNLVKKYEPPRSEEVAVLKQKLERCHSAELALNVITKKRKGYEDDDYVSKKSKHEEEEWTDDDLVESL
Chain of CHK1 (O14757 whole entry): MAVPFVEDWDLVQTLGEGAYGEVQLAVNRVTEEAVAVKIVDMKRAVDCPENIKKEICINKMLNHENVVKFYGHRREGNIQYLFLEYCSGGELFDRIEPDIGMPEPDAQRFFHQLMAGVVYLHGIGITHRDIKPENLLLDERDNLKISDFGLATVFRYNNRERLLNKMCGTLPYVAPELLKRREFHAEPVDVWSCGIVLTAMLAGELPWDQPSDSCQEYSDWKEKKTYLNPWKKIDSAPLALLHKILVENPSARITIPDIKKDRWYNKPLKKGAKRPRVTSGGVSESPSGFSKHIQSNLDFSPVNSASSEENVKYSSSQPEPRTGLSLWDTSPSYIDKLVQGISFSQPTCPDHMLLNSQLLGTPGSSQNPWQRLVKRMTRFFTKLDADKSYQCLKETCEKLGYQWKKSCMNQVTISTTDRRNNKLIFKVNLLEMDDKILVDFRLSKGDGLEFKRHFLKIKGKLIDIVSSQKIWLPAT
Chain of GSK3β (P49841 whole entry): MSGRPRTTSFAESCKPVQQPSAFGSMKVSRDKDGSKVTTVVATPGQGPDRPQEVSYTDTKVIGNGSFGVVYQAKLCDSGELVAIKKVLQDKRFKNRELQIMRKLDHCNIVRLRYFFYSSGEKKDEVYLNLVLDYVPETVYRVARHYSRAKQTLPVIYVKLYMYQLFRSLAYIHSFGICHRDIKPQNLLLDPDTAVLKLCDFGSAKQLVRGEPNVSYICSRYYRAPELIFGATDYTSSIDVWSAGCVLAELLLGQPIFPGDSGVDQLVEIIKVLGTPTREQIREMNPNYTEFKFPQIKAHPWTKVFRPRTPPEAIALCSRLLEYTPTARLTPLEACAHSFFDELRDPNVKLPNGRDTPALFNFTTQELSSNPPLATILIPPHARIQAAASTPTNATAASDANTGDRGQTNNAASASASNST
Chain of c-Abl (P00519 whole entry): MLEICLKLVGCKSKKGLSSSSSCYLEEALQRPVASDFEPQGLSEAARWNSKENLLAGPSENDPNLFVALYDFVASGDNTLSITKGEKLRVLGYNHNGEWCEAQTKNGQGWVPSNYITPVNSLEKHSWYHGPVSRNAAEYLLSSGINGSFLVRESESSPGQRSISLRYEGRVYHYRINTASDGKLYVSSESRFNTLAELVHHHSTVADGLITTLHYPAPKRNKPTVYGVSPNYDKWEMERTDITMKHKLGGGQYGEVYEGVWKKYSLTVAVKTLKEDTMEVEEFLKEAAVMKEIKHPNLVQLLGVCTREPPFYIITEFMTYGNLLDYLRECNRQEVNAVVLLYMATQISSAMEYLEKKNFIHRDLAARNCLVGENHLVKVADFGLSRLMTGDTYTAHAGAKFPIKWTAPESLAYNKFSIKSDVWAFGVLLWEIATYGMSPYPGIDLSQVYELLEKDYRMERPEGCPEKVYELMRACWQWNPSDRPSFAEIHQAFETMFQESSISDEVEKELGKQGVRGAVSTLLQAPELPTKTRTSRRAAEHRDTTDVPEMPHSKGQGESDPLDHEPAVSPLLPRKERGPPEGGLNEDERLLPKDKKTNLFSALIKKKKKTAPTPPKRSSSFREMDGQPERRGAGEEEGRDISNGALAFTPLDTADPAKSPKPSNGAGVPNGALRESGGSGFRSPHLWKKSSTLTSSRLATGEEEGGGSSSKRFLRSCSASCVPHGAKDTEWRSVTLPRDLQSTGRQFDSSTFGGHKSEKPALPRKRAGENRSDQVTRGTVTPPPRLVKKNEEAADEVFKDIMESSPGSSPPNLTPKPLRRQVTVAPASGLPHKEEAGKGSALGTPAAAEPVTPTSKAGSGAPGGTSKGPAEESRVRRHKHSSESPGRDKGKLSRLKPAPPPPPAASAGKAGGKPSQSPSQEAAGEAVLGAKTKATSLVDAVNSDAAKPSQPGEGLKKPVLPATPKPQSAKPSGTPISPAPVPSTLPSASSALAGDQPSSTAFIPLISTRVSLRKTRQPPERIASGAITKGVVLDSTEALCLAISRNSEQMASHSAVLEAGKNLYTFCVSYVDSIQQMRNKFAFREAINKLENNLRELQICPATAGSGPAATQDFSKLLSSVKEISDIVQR
Chain of SAPK2α (Q16539 whole entry): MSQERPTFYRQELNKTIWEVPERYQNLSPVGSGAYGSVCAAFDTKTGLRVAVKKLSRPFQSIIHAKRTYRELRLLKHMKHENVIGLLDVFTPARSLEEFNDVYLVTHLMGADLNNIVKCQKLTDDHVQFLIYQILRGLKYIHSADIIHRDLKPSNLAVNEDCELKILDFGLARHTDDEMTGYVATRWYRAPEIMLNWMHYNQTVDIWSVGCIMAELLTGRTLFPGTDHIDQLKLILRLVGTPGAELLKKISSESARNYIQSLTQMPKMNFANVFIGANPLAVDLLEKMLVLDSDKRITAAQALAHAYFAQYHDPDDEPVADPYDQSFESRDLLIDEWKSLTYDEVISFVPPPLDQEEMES
Chain of CK2 (P68400 whole entry): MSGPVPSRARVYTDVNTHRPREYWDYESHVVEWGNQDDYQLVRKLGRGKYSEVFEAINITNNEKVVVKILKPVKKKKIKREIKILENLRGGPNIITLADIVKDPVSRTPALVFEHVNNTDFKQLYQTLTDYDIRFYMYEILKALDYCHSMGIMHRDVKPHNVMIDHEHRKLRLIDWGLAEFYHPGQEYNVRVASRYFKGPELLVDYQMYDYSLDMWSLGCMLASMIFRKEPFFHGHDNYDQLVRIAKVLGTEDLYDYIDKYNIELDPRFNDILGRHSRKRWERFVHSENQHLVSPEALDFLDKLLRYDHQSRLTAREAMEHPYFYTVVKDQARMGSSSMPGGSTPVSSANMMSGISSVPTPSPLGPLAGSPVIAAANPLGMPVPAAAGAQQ

Nc1n[nH]c(N)c1N=Nc1ccc(O)cc1 [Compound 12b, 3,5-diamino-4-(4-hydroxy)phenylazo-pyrazole]
viability at 72 h, 100 µM ([1]; G 361 cells (human malignant melanoma), 72 h, read-out: % of viable cells G361): 8.3% | viability at 72 h, 100 µM ([1]; HOS cells (human osteogenic sarcoma), read-out: % of viable cells HOS): 22% | viability at 72 h, 100 µM ([1]; K562 cells (human chronic myeloblastic leukemia), 72 h, read-out: % of viable cells K562): 23% | viability at 72 h, 100 µM ([1]; MCF7 cells (human breast adenocarcinoma), 72 h, read-out: % of viable cells MCF7): 20% | % of kinase activity (CK2): 65% | IC50 (CDK1/cyclin B; [3]): 2.1 µM | % of kinase activity (CDK1/cyclin B; [4]): 19% | IC50 (p70S6K): ~10 µM | % of kinase activity (p70S6K; [4]): 51% | % of kinase activity (PKA): 67% | % of kinase activity (PKBα): 105% | % of kinase activity (GSK3β): 81% | % of kinase activity (MAPK1): 99% | cell death by western blotting and flow cytometry (K562 cell line; 72 h treatment): significant cell death | cell cycle distribution (K562 cell line; K562, 50 μM, after 12 h incubation): accumulation of cell population in G1 | sub-G1 peak / fragmented DNA (K562 cell line; K562, longer incubation period (48-72 h)): sub-G1 peak of cell fragments, containing fragmented DNA | % of kinase activity (SAPK2α): 82% | IC50 (CDK2/cyclin E; [3]): 3.5 µM | % of kinase activity (CDK2/cyclin E; [4]): 31% | PARP cleavage fragment (western blot) [2]: revealed a 89 kDa peptide | % of kinase activity (c-Abl): 84% | % of kinase activity (CHK1): 89% | % of kinase activity (CDK7/cyclin H): 71%
